Test results reported in patent US11439641B2, “Pyrimidine JAK inhibitors for the treatment of skin diseases” (THERAVANCE BIOPHARMA R&D IP, LLC, priority 2019, dated 2022).
≈ marks a conversion by molar mass, not a printed value.

Experiments:
[1] = biological target: Tyk2 (Homo sapiens (Human), UniProt P29597); experiment: Biochemical JAK and Tyk2 Kinase Assays (LanthaScreen), Tyk2; details: 10 μM ATP (Km), pIC50 converted to pKi by Cheng-Prusoff; for Ki: read-out: Tyk 2 (pKi) (converted)
Method: (§1) Assay 1: Biochemical JAK and Tyk2 Kinase Assays
(§2) A panel of four LanthaScreen JAK biochemical assays (JAK1, 2, 3 and Tyk2) were carried in a common kinase reaction buffer (50 mM HEPES, pH 7.5, 0.01% Brij-35, 10 mM MgCl2, and 1 mM EGTA). Recombinant GST-tagged JAK enzymes and a GFP-tagged STAT1 peptide substrate were obtained from Life Technologies.
(§3) Serially or discretely diluted compounds were pre-incubated with each of the four JAK enzymes and the substrate in white 384-well microplates (Corning) at ambient temperature for 1 h. ATP was subsequently added to initiate the kinase reactions in 10 μL total volume, with 1% DMSO. The final enzyme concentrations for JAK1, 2, 3 and Tyk2 are 4.2 nM, 0.1 nM, 1 nM, and 0.25 nM respectively; the corresponding Km ATP concentrations used are 25 μM, 3 μM, 1.6 μM, and 10 μM; while the substrate concentration is 200 nM for all four assays. Kinase reactions were allowed to proceed for 1 hour at ambient temperature before a 10 μL preparation of EDTA (10 mM final concentration) and Tb-anti-pSTAT1 (pTyr701) antibody (Life Technologies, 2 nM final concentration) in TR-FRET dilution buffer (Life Technologies) was added. The plates were allowed to incubate at ambient temperature for 1 h before being read on the EnVision reader (Perkin Elmer). Emission ratio signals (520 nm/495 nm) were recorded and utilized to calculate the percent inhibition values based on DMSO and background controls.
(§4) For dose-response analysis, percent inhibition data were plotted vs. compound concentrations, and IC50 values were determined from a 4-parameter robust fit model with the Prism software (GraphPad Software). Results were expressed as pIC50 (negative logarithm of IC50) and subsequently converted to pKi (negative logarithm of dissociation constant, Ki) using the Cheng-Prusoff equation.

[2] = test system: IL-2 stimulated pSTAT5 in Tall-1 T cells; experiment: Inhibition of IL-2 Stimulated pSTAT5 in Tall-1 T Cells; assay type: cell-based; details: Tall-1 human T cell line, IL-2 300 ng/mL, AlphaLisa; for IC50: read-out: Tall-1 IL2 pSTAT5 (pIC50) (converted)
In short: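 Cells preincubated with compound 1 hour at 37° C, then stimulated with IL-2 (final 300 ng/mL) for 30 minutes. After lysis, pSTAT5 (Tyr694/699) read by AlphaLISA luminescence. IC50 from inhibition curves, reported as pIC50 (mean±SD).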

[3] = biological target: JAK1 (Homo sapiens (Human), UniProt P23458); experiment: Biochemical JAK and Tyk2 Kinase Assays (LanthaScreen), JAK1; details: 25 μM ATP (Km), pIC50 converted to pKi by Cheng-Prusoff
JAK1, sequence (P23458 whole entry): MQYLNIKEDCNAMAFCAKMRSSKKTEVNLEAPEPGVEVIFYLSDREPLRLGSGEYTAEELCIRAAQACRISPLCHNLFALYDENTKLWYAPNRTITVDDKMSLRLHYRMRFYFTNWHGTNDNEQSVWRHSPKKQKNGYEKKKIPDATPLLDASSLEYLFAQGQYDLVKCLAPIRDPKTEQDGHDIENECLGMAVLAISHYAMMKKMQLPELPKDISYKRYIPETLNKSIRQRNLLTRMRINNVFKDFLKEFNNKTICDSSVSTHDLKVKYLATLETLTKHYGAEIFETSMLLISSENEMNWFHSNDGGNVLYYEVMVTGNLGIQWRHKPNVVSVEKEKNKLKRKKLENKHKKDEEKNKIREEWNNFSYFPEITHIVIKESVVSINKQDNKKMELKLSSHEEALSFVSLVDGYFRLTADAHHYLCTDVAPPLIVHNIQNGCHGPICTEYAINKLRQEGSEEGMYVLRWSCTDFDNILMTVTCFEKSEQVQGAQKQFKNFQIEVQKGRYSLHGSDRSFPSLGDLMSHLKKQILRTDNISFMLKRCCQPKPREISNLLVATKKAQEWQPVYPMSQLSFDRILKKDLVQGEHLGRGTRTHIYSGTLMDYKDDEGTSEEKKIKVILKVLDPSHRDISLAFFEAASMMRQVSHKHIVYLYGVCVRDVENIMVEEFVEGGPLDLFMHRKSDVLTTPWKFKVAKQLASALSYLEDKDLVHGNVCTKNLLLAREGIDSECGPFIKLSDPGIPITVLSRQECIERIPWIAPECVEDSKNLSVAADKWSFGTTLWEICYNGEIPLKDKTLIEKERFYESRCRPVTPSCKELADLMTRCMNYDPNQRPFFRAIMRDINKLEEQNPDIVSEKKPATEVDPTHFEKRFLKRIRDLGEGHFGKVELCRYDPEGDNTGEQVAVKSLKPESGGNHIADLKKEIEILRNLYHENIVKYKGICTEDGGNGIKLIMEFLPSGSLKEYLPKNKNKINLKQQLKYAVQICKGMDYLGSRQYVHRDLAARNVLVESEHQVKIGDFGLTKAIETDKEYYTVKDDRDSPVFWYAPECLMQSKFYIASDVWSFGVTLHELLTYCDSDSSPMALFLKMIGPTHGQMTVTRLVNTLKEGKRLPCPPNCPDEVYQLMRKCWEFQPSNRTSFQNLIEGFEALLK

[4] = physchem; details: thermodynamic from solid
Method: (§5) Assay 6: Solubility Assay in Organic Excipients
(§6) The purpose of this assay was to quantify the solubility of test compounds in different organic excipients such as diisopropyl adipate, medium chain triglycerides (MCT), propylene glycol, and polyethylene glycol. The assay required 80 μL of 100 mM DMSO test compound solution per desired excipient in addition to 40 μL required to make a test standard.
(§7) The standard was created by diluting 40 μL of 100 mM DMSO compound stock solution into 160 μL of methanol and was shaken for five minutes to ensure solution uniformity. […] This 20,000 μM solution was run on an Agilent 1260 LC-MS system by injecting 0.2 μL in order to obtain the peak area. For the test solutions, 80 μL of 100 mM DMSO compound stock solution, per excipient, were dried down into a powder overnight. Once in powder form, 400 μL of the desired excipient was added to the powder and allowed to shake vigorously for four hours. The maximum theoretical concentration for this sample solution was 20,000 μM. After four hours of shaking, the samples were centrifuged for 10 minutes at 3,000 RPM before injecting 0.2 μL on the same Agilent 1260 LC-MS system to obtain the peak area.

[5] = biological target: JAK3 (Homo sapiens (Human), UniProt P52333); experiment: Biochemical JAK and Tyk2 Kinase Assays (LanthaScreen), JAK3; details: 1.6 μM ATP (Km), pIC50 converted to pKi by Cheng-Prusoff; for Ki: read-out: JAK 3 (pKi) (converted)
JAK3, sequence (P52333 whole entry): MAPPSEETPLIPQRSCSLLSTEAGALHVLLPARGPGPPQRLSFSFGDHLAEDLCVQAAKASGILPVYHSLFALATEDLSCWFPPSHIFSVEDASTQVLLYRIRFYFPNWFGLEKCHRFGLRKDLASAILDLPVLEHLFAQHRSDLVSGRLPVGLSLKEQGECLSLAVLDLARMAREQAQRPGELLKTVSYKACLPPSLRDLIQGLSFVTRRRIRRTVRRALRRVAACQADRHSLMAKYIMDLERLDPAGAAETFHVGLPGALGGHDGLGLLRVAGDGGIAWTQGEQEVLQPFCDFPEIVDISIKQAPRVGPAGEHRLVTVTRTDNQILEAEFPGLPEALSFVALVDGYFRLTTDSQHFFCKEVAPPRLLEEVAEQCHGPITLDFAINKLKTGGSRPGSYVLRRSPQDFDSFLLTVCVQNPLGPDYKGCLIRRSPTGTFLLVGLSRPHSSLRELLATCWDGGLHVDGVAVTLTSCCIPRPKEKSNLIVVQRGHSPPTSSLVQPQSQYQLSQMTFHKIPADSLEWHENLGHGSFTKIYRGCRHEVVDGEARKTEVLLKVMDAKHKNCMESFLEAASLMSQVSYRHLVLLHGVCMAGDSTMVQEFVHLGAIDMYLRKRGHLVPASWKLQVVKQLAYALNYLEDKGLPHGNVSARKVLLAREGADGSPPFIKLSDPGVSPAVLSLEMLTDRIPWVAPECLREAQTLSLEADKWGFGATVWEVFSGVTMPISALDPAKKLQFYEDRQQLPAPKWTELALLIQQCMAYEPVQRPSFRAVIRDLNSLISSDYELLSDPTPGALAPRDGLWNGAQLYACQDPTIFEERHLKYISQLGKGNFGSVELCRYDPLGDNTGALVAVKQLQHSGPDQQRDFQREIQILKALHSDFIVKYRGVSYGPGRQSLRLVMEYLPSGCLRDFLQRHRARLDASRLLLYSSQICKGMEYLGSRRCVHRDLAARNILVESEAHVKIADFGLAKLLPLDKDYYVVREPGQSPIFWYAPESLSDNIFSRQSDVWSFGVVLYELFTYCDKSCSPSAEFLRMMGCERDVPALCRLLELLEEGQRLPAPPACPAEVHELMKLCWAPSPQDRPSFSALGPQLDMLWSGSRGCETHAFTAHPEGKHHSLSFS

[6] = biological target: JAK2 (Homo sapiens (Human), UniProt O60674); experiment: Biochemical JAK and Tyk2 Kinase Assays (LanthaScreen), JAK2; details: 3 μM ATP (Km); pIC50 converted to pKi by Cheng-Prusoff
JAK2, sequence (O60674 whole entry): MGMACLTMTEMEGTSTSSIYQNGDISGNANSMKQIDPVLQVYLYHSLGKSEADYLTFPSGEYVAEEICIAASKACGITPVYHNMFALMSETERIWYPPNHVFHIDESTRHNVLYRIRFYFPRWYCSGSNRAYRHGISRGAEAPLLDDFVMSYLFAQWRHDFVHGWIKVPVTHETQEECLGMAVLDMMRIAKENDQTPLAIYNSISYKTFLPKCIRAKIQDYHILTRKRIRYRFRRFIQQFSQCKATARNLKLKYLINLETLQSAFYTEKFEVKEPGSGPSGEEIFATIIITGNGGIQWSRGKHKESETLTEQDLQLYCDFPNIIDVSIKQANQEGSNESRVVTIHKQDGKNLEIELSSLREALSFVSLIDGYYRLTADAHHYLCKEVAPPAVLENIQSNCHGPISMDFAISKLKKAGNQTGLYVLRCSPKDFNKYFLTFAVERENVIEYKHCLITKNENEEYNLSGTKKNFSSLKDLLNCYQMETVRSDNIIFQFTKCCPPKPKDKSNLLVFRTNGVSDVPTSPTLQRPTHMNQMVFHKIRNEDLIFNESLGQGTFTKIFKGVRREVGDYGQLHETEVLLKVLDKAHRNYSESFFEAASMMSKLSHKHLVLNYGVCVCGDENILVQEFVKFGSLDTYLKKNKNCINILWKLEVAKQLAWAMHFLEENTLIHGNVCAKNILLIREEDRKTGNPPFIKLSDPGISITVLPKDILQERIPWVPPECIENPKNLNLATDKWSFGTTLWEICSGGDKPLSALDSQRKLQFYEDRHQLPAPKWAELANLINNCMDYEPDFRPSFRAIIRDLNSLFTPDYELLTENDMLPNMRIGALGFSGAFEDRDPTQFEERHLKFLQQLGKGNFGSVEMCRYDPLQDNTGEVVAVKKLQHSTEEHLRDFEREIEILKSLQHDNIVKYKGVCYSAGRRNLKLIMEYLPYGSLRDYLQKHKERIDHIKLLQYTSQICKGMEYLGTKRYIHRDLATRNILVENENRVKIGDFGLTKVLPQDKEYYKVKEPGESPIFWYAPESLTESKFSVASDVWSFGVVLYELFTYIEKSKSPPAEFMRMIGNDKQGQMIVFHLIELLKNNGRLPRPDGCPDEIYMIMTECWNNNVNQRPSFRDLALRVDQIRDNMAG
Method: as §1, §2, §3, §4

[7] = test system: Caco-2 cell monolayer; experiment: Caco-2 Permeation Assay; assay type: in vitro ADME; details: Papp, 5 μM compound; for Cacoverap Kp 10^−6 cm/sec: A→B in the presence of 25 μM verapamil (P-gp inhibitor); for Caco Kp 10^−6 cm/sec: apical to basal (A→B)
Method: Assay 3: Caco-2 Permeation Assay
The Caco 2 permeability assay was used as a surrogate for assessment of skin permeability. This assay measures the in vitro permeability across a monolayer of Caco-2 cells, which morphologically and functionally resemble the enterocytes of the small intestine.
CacoReady 24-well transwell plates were obtained from ADMEcell (Alameda, Calif.). The compounds were evaluated at a concentration of 5 μM from 10 mM DMSO stock solutions in duplicate (n=2). Transport in the apical to basal (A→B) direction was determined in Caco 2 cell monolayers. From these values the apparent permeability (Papp) was calculated. To inform on the potential of the compound to be a P-gp substrate, the transport of the compound across the Caco-2 cell monolayer was also determined in the presence of 25 μM of the known P-gp inhibitor verapamil (Yusa and Tsuruo et al., Cancer Research, vol. 49, no. 18, 1989, pp. 5002-06).
Caco-2 culture media consisted of standard filtered DMEM, FCS 10%, L-Glutamine 1%, and PenStrep 1%. The experiment was conducted at 37° C. and in a CO2 (5%) incubator. The basal assay plate was prepared by adding 750 pt of transport buffer to A→B wells. A CacoReady™ plate was prepared by removing the Caco-2 media from the apical wells and replacing with fresh transport media (200 pt repeated for a total of 3 washes). Blank media (200 μL) was then replaced with diluted compound. To begin the incubation, the basal plate was removed from the incubator and the apical section was added on top of it. Samples were collected from the apical and basal compartments for time zero (t0). Samples were collected again after 120 minutes (t120) from the apical and basal compartments. All samples were diluted and prepared for bioanalysis by LC-MS/MS. The permeability coefficients (Papp, mean A to B) and (Papp, mean A to B+Verapamil) in cm/sec were calculated as dQ (flux)/(dt×Area×concentration).
In this assay, a compound with a Papp value of more than about 12×10−6 cm/sec is considered to have high permeability.

[8] = Aqueous Solubility Assay; details: PBS buffer pH 7.4; maximum upper limit 1,000 μM
[9] = Solubility Assay in Organic Excipients; details: maximum upper limit 20,000 μM; for Solubility in MCT (mg/mL): medium chain triglycerides (MCT)
Method: as §5, §6, §7

[10] = oil or lipid, Solubility in MCT (mg/mL)
[11] = organic solvent or mixture, Solubility in Diisopropyl adipate (mg/mL)
[12] = organic solvent or mixture, Solubility in PEG400 (mg/mL)
[13] = organic solvent or mixture, Solubility in Propylene glycol (mg/mL)

Tyk2, sequence (P29597 whole entry): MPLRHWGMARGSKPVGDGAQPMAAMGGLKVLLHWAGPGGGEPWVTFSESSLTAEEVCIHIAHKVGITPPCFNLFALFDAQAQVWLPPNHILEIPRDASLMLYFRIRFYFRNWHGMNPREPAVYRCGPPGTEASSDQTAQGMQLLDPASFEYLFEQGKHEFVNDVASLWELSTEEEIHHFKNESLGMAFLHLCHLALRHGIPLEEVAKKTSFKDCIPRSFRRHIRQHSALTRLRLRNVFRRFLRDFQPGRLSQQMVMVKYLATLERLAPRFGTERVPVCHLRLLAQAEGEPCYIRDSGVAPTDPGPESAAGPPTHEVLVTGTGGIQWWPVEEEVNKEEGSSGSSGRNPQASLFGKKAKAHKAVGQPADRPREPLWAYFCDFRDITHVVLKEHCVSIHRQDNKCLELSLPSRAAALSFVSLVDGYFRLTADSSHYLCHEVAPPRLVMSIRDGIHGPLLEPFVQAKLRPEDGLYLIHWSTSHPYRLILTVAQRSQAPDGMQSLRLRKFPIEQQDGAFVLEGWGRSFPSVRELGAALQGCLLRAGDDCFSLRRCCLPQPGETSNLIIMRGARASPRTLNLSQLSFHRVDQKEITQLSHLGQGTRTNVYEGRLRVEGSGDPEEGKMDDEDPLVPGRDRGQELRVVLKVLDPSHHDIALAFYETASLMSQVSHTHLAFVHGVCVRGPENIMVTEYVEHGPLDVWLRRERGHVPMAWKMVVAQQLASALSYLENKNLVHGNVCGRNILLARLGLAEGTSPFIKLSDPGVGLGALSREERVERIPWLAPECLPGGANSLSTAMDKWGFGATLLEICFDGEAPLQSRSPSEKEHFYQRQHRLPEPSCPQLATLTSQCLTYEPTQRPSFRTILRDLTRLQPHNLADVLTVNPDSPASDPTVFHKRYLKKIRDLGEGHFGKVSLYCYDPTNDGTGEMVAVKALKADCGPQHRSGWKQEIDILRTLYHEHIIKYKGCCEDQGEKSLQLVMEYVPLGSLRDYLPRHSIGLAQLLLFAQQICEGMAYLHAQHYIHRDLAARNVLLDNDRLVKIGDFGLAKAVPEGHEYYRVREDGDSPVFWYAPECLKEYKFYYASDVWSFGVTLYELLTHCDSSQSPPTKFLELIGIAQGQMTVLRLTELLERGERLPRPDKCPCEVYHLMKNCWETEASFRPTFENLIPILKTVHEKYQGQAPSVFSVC

Compound	Ki [1]	IC50 [2]	Ki ([3]; read-out: JAK 1 (pKi) (converted))	solubility at 4 h [4, 10]	solubility at 4 h [4, 11]	solubility at 4 h [4, 12]	solubility at 4 h [4, 13]	Ki [5]	JAK 2 (pKi) [6]	Cacoverap Kp 10^−6 cm/sec [7]	Caco Kp 10^−6 cm/sec [7]	Solubility at PH 7.4 (μmol) [8]	Solubility in PEG400 (mg/mL) [9]	Solubility in Diisopropyl adipate (mg/mL) [9]	Solubility in MCT (mg/mL) [9]	Solubility in Propylene glycol (mg/mL) [9]	Tall-1 IL2 pSTAT5 (pIC50) [2]	JAK 1 (pKi) [3]	JAK 3 (pKi) [5]	Tyk 2 (pKi) [1]
COCCC(=O)N1[C@@H]2CCC[C@H]1C[C@H](N(C)c1nc(Nc3cc(C)[nH]n3)cc(O[C@@H]3CCOC3)n1)C2 [Compound 25]	0.1 to 1 nM	≤ 10 nM	0.1 to 1 nM	< 5000 µg/mL	> 10000 µg/mL	> 10000 µg/mL	> 10000 µg/mL	0.1 to 1 nM	A (A represents a pKi value ≥10 (Ki≤0.1 nM))	–	–	–	–	–	–	–	–	–	–	–
CCS(=O)(=O)N1[C@@H]2CCC[C@H]1C[C@H](N(C)c1nc(Nc3cc(C)[nH]n3)c(F)c(C3CCOCC3)n1)C2 [Compound 45, N2-((1R,3s,5S)-9-(ethylsulfonyl)-9-azabicyclo[3.3.1]nonan-3-yl)-5-fluoro-N2-methyl-N4-(5-methyl-1H-pyrazol-3-yl)-6-(tetrahydro-2H-pyran-4-yl)pyrimidine-2,4-diamine]	–	–	–	–	–	–	–	–	–	B (B represents a value between 20×10^−6 and 35×10^−6 cm/sec)	B (B represents a value between 15×10^−6 and 30×10^−6 cm/sec)	E (E represents a value below 10)	A (A represents a value above 10)	A (A represents a value above 10)	C (C represents a value below 5)	A (A represents a value above 10)	A (A represents a pIC50 value ≥8.0)	B (B represents a pKi value between 9 and 10 (Ki between 1 nM and 0.1 nM))	C (C represents a pKi value between 8 and 9 (Ki between 10 nM and 1 nM))	–
Cc1cc(Nc2cc(C3CCCO3)nc(N(C)[C@@H]3C[C@H]4CCC[C@@H](C3)N4C(=O)CC3CC3)n2)n[nH]1 (stereo partly drawn) [Compound 12, 2-cyclopropyl-1-((1R,3s,5S)-3-(methyl(4-((5-methyl-1H-pyrazol-3-yl)amino)-6-(tetrahydrofuran-2-yl)pyrimidin-2-yl)amino)-9-azabicyclo[3.3.1]nonan-9-yl)ethan-1-one]	–	–	–	–	–	–	–	–	–	C (C represents a value between 12×10^−6 and 20×10^−6 cm/sec)	B (B represents a value between 15×10^−6 and 30×10^−6 cm/sec)	C (C represents a value between 50 and 250)	B (B represents a value between 5 and 10)	B (B represents a value between 5 and 10)	C (C represents a value below 5)	B (B represents a value between 5 and 10)	A (A represents a pIC50 value ≥8.0)	B (B represents a pKi value between 9 and 10 (Ki between 1 nM and 0.1 nM))	C (C represents a pKi value between 8 and 9 (Ki between 10 nM and 1 nM))	–
CCNC(=O)CN1[C@@H]2CCC[C@H]1C[C@H](N(C)c1nc(Nc3cc(C)[nH]n3)cc(C3CCCO3)n1)C2 (stereo partly drawn) [Compound 15, N-ethyl-2-((1R,3s,5S)-3-(methyl(4-((5-methyl-1H-pyrazol-3-yl)amino)-6-(tetrahydrofuran-2-yl)pyrimidin-2-yl)amino)-9-azabicyclo[3.3.1]nonan-9-yl)acetamide]	–	–	–	–	–	–	–	–	–	B (B represents a value between 20×10^−6 and 35×10^−6 cm/sec)	B (B represents a value between 15×10^−6 and 30×10^−6 cm/sec)	A (A represents a value above 500)	B (B represents a value between 5 and 10)	A (A represents a value above 10)	C (C represents a value below 5)	A (A represents a value above 10)	A (A represents a pIC50 value ≥8.0)	A (A represents a pKi value ≥10 (Ki≤0.1 nM))	B (B represents a pKi value between 9 and 10 (Ki between 1 nM and 0.1 nM))	–
Cc1cc(Nc2cc(OC3COC3)nc(N(C)[C@@H]3C[C@H]4CCC[C@@H](C3)N4C(=O)CC3CC3)n2)n[nH]1 [Compound 35]	–	≤ 10 nM	–	< 5000 µg/mL	5000 to 10000 µg/mL (≈ 10.4 to 20.8 mM)	5000 to 10000 µg/mL (≈ 10.4 to 20.8 mM)	5000 to 10000 µg/mL (≈ 10.4 to 20.8 mM)	0.1 to 1 nM	A (A represents a pKi value ≥10 (Ki≤0.1 nM))	–	–	–	–	–	–	–	–	A (A represents a pKi value ≥10 (Ki≤0.1 nM))	–	A (A represents a pKi value ≥10 (Ki≤0.1 nM))
CCS(=O)(=O)N1[C@@H]2CCC[C@H]1C[C@H](N(C)c1nc(Nc3cc(C)[nH]n3)cc(OCC3COC3)n1)C2 [Compound 39, N^2-((1R,3s,5S)-9-(ethylsulfonyl)-9-azabicyclo[3.3.1]nonan-3-yl)-N2-methyl-N4-(5-methyl-1H-pyrazol-3-yl)-6-(oxetan-3-ylmethoxy)pyrimidine-2,4-diamine]	–	–	–	–	–	–	–	–	–	B (B represents a value between 20×10^−6 and 35×10^−6 cm/sec)	B (B represents a value between 15×10^−6 and 30×10^−6 cm/sec)	E (E represents a value below 10)	A (A represents a value above 10)	B (B represents a value between 5 and 10)	C (C represents a value below 5)	B (B represents a value between 5 and 10)	–	A (A represents a pKi value ≥10 (Ki≤0.1 nM))	A (A represents a pKi value ≥10 (Ki≤0.1 nM))	–
CCNC(=O)CN1[C@@H]2CCC[C@H]1C[C@H](N(C)c1nc(Nc3cc(C)[nH]n3)cc(O[C@H]3CCOC3)n1)C2 [Compound 32]	0.1 to 1 nM	–	–	< 5000 µg/mL	> 10000 µg/mL	> 10000 µg/mL	> 10000 µg/mL	0.1 to 1 nM	A (A represents a pKi value ≥10 (Ki≤0.1 nM))	–	–	–	–	–	–	–	–	A (A represents a pKi value ≥10 (Ki≤0.1 nM))	–	–
